From PubChem BioAssay (NCI) come the findings set out here.

Among the test systems are KM12 colon; SW-620 colon; LOX IMVI melanoma; A498 renal; A549 NSCLC; M14 melanoma; HCC-2998 colon; UACC-257 melanoma; OVCAR-4 ovarian; HOP-92 NSCLC; MCF7 breast; OVCAR-3 ovarian; SF-539 CNS; SK-OV-3 ovarian; HT29 colon; SNB-75 CNS; HL-60(TB) leukemia.
Test in all cases: DTP human tumour cell line panel, 48 h

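Assay format: 96-well plates, 48-hour exposure. TGI is the concentration that stops growth completely.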 Where only a bound is given, the exact number is not on record here.

Usually TGI stands for the concentration at which net growth stops. Regarding `CC[C@@]1(CCC(=O)NCCc2c[nH]c3ccccc23)CCC(=O)N2CCc3c([nH]c4ccccc34)[C@H]21`, the TGI in the assay with KM12 colon was 19.4 µM; in the assay with SW-620 colon, more than 100 µM; in the assay on LOX IMVI melanoma it was 96.2 µM; with A498 renal it was more than 100 µM; with A549 NSCLC it was more than 100 µM; in the assay with M14 melanoma, more than 100 µM. The TGI in the assay with HCC-2998 colon was 46.7 µM; in the assay on UACC-257 melanoma it was more than 100 µM; with OVCAR-4 ovarian, more than 100 µM; in the assay with HOP-92 NSCLC it was more than 100 µM; in the assay on MCF7 breast, more than 100 µM; in the assay with OVCAR-3 ovarian, more than 100 µM. The TGI with SF-539 CNS was 61.3 µM; in the assay on SK-OV-3 ovarian, more than 100 µM.
As for `CC1=CCC2CC1NC(=O)CCOCCC(=O)NC2(C)C` (centres undefined), the TGI in the assay on KM12 colon, in the assay on SW-620 colon, in the assay with LOX IMVI melanoma, in the assay with A498 renal, with A549 NSCLC and in the assay on M14 melanoma was more than 100 µM throughout. The TGI in the assay with HCC-2998 colon, in the assay with UACC-257 melanoma, in the assay with OVCAR-4 ovarian, in the assay with HT29 colon, in the assay on HOP-92 NSCLC and with MCF7 breast was more than 100 µM throughout. Also, the TGI in the assay with SF-539 CNS and with SK-OV-3 ovarian was more than 100 µM in each case.
As to `C=C1Cc2cc(OC)c(OC)c(OC)c2-c2ccc(SC)c(=O)cc21`, the TGI is less than 0.01 µM with KM12 colon; 15.1 µM in the assay on SNB-75 CNS; 4 µM in the assay with SW-620 colon; 0.343 µM in the assay with LOX IMVI melanoma; 0.421 µM with A498 renal; 19.5 µM in the assay on A549 NSCLC. The concentration for total growth inhibition (TGI) in the assay on HCC-2998 colon was 0.402 µM; in the assay with UACC-257 melanoma, 7.62 µM; in the assay with OVCAR-4 ovarian, 18.9 µM; in the assay with HT29 colon, less than 0.01 µM; in the assay with HOP-92 NSCLC, 3.7 µM; in the assay on OVCAR-3 ovarian, less than 0.01 µM. Further, the TGI in the assay with SF-539 CNS is less than 0.01 µM; with SK-OV-3 ovarian, 5.15 µM.
`CCOC(=O)C1(Br)S(=O)(=O)OCCOS1(=O)=O`: the TGI in the assay on SNB-75 CNS, in the assay on SW-620 colon, with LOX IMVI melanoma, with A498 renal, with HL-60(TB) leukemia and in the assay on A549 NSCLC was more than 100 µM each time. Further, the TGI with M14 melanoma, in the assay on HCC-2998 colon, in the assay with UACC-257 melanoma, in the assay on OVCAR-4 ovarian, in the assay on HT29 colon and with HOP-92 NSCLC was more than 100 µM in each case. Also, the total growth inhibition concentration (TGI) with OVCAR-3 ovarian, with SF-539 CNS and in the assay with SK-OV-3 ovarian was more than 100 µM in each case.
Take `CN(C(=O)c1ccco1)C(=S)N1CCN(c2ccccn2)CC1`: the TGI in the assay with KM12 colon, in the assay on SNB-75 CNS, with SW-620 colon, with LOX IMVI melanoma, in the assay with HL-60(TB) leukemia and with A549 NSCLC was more than 100 µM each time. For the same molecule, the concentration for total growth inhibition (TGI) in the assay with M14 melanoma, in the assay with UACC-257 melanoma, in the assay on OVCAR-4 ovarian, with HT29 colon, in the assay with HOP-92 NSCLC and with OVCAR-3 ovarian was more than 100 µM in each case. The TGI in the assay on SF-539 CNS and with SK-OV-3 ovarian was more than 100 µM in each case.
Regarding `CCCNC(=O)N(C)C(=O)N1N=C(c2ccccc2)C1c1ccccc1` (centres undefined), the TGI in the assay with KM12 colon, in the assay with SNB-75 CNS, with SW-620 colon, in the assay with LOX IMVI melanoma, in the assay with A498 renal and in the assay with A549 NSCLC was more than 100 µM in each case. In addition, the TGI with M14 melanoma, in the assay with HCC-2998 colon, in the assay on UACC-257 melanoma, in the assay with OVCAR-4 ovarian, in the assay on HOP-92 NSCLC and in the assay with MCF7 breast was more than 100 µM throughout. Further, the TGI in the assay on OVCAR-3 ovarian, with SF-539 CNS and with SK-OV-3 ovarian was more than 100 µM each time.
As to `O=c1c2c(c1=O)-c1ccccc1CN2`, the TGI in the assay with KM12 colon, with SNB-75 CNS, in the assay with SW-620 colon, in the assay on LOX IMVI melanoma, with A498 renal and with HL-60(TB) leukemia was more than 100 µM in each case. Moreover, the TGI in the assay on A549 NSCLC, in the assay with M14 melanoma, with HCC-2998 colon, in the assay with UACC-257 melanoma, with OVCAR-4 ovarian and in the assay with HT29 colon was more than 100 µM each time. For the same molecule, the TGI in the assay on HOP-92 NSCLC, with OVCAR-3 ovarian, in the assay on SF-539 CNS and in the assay with SK-OV-3 ovarian was more than 100 µM each time.
Regarding `COC(=O)C1C=CCON2CCc3c(n(S(=O)(=O)c4ccccc4)c4ccccc34)C12` (centres undefined), the TGI in the assay on KM12 colon was more than 55.6 µM; in the assay on SNB-75 CNS, more than 100 µM; in the assay on SW-620 colon, more than 34.3 µM; with LOX IMVI melanoma, more than 60.9 µM; in the assay with A498 renal it was more than 100 µM; in the assay with HL-60(TB) leukemia it was more than 67.2 µM. For the same molecule, the concentration for total growth inhibition (TGI) is more than 100 µM with A549 NSCLC; more than 100 µM in the assay on M14 melanoma; more than 100 µM with HCC-2998 colon; more than 90.3 µM in the assay on UACC-257 melanoma; more than 31.6 µM in the assay on OVCAR-4 ovarian; more than 100 µM with HT29 colon. Besides, the TGI was more than 100 µM in the assay on HOP-92 NSCLC, more than 100 µM in the assay with OVCAR-3 ovarian, more than 16.2 µM in the assay with SF-539 CNS and more than 85.7 µM in the assay on SK-OV-3 ovarian.
For `O=c1c2cc(I)ccc2nc(-c2cccs2)n1/N=C/c1ccccc1`, the TGI with KM12 colon, with SNB-75 CNS, with SW-620 colon, in the assay with LOX IMVI melanoma, with HL-60(TB) leukemia and with A549 NSCLC was more than 100 µM each time. The total growth inhibition concentration (TGI) in the assay with M14 melanoma, in the assay on HCC-2998 colon, with UACC-257 melanoma, in the assay with OVCAR-4 ovarian, with HT29 colon and in the assay with HOP-92 NSCLC was more than 100 µM each time. Moreover, the TGI with MCF7 breast, with OVCAR-3 ovarian, in the assay on SF-539 CNS and in the assay on SK-OV-3 ovarian was more than 100 µM each time.
